The supplement of paper PMC10307832

Legend:
Test in all cases: relative viability (nuclei count vs DMSO), 5 days (fraction); higher = more cells survive
Imatinib + OSI-027 = compound: Cc1ccc(NC(=O)c2ccc(CN3CCN(C)CC3)cc2)cc1Nc1nccc(-c2cccnc2)n1 [Imatinib] + COc1cccc2cc(-c3nc([C@H]4CC[C@H](C(=O)O)CC4)n4ncnc(N)c34)[nH]c12 [OSI-027] (partner 0.5 µM)
Summary of the method: (§1)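 Cells from lung cancer lines were seeded into 1536-well plates and, one day later, dosed by pin tool. Treatments were either a single drug or a fixed dose of an anchor drug with five library-drug doses (not always all listed) in √10 steps. After 5 days, nuclei were stained in a one-step fixation (final 0.05% Triton X-100, 1% formaldehyde, 1 ug/ml Hoechst) and counted on 4× images, and relative viability is the treated-to-vehicle nuclei ratio, as the median of duplicate plates.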

Imatinib + AZD7762 = compound: Cc1ccc(NC(=O)c2ccc(CN3CCN(C)CC3)cc2)cc1Nc1nccc(-c2cccnc2)n1 [Imatinib] + NC(=O)Nc1cc(-c2cccc(F)c2)sc1C(=O)N[C@H]1CCCNC1 [AZD7762] (partner 0.2 µM)
Summary of the method: as §1

Imatinib + Decitabine = compound: Cc1ccc(NC(=O)c2ccc(CN3CCN(C)CC3)cc2)cc1Nc1nccc(-c2cccnc2)n1 [Imatinib] + Nc1ncn([C@H]2C[C@H](O)[C@@H](CO)O2)c(=O)n1 [Decitabine] (partner 2 µM)
Summary of the method: as §1

Imatinib + Luminespib = compound: Cc1ccc(NC(=O)c2ccc(CN3CCN(C)CC3)cc2)cc1Nc1nccc(-c2cccnc2)n1 [Imatinib] + CCNC(=O)c1noc(-c2cc(C(C)C)c(O)cc2O)c1-c1ccc(CN2CCOCC2)cc1 [Luminespib] (partner 0.01 µM)
Summary of the method: as §1

Row | Cell Line | relative viability (Imatinib + OSI-027; first compound 0.02 µM) | relative viability (Imatinib + OSI-027; first compound 0.2 µM) | relative viability (Imatinib + OSI-027; first compound 0.6325 µM) | relative viability (Imatinib + OSI-027; first compound 2 µM) | relative viability (Imatinib + AZD7762; first compound 0.02 µM) | relative viability (Imatinib + AZD7762; first compound 0.2 µM) | relative viability (Imatinib + AZD7762; first compound 0.6325 µM) | relative viability (Imatinib + AZD7762; first compound 2 µM) | relative viability (Imatinib + Decitabine; first compound 0.02 µM) | relative viability (Imatinib + Decitabine; first compound 0.2 µM) | relative viability (Imatinib + Decitabine; first compound 0.6325 µM) | relative viability (Imatinib + Decitabine; first compound 2 µM) | relative viability (Imatinib + Luminespib; first compound 0.02 µM) | relative viability (Imatinib + Luminespib; first compound 0.06325 µM) | relative viability (Imatinib + Luminespib; first compound 0.2 µM) | relative viability (Imatinib + Luminespib; first compound 0.6325 µM) | relative viability (Imatinib + OSI-027; first compound 0.06325 µM) | relative viability (Imatinib + AZD7762; first compound 0.06325 µM) | relative viability (Imatinib + Decitabine; first compound 0.06325 µM) | relative viability (Imatinib + Luminespib; first compound 2 µM)
1 | HOP-62 | 0.999 | 0.993 | 0.724 | 0.781 | 0.532 | 0.707 | 0.504 | 0.687 | 0.199 | 0.25 | 0.232 | 0.211 | 1.06 | 0.84 | 1.03 | 0.886 | – | – | – | –
2 | ABC-1 | 0.516 | 0.504 | 0.521 | 0.564 | 0.821 | 0.786 | – | 0.726 | 1.22 | 0.909 | 1.15 | 1.06 | 0.911 | – | 0.445 | 0.326 | – | – | – | –
3 | NCI-H2126 | 0.851 | 0.673 | 0.604 | 0.678 | – | 1.03 | 0.894 | 0.981 | 0.545 | 0.634 | 0.58 | 0.538 | 0.955 | – | 0.979 | – | 0.68 | 0.668 | 0.522 | 0.959
